Where a SMILES comes first, the peptide text is derived from it. [ ]: non-standard residue; d: D form. The star is where a group is joined. dPhe(4-NHCONH2) = NC(=O)Nc1ccc(C[C@@H](N)C(=O)O)cc1; Dihydroorotyl(S) = O=C1C[C@@H](C(=O)*)NC(=O)N1; dPhe(4-Cl) = N[C@H](Cc1ccc(Cl)cc1)C(=O)O; Phe(4-NH2) = Nc1ccc(C[C@H](N)C(=O)O)cc1; d2Nal = N[C@H](Cc1ccc2ccccc2c1)C(=O)O; Lys(iPr) = CC(C)NCCCC[C@H](N)C(=O)O; d3Pal = N[C@H](Cc1cccnc1)C(=O)O
How the values were obtained:
[1] = molecular target: T1, Endonuclease 8-like 2 (Homo sapiens) (UniProt Q969S2); details: Compound Concentration 10.0 uM;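 further: fluorescence at 594 nm reports NEIL2 cutting and release of a quenched double-stranded DNA oligo substrate, reduced signal read as inhibition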
T1 sequence (whole entry): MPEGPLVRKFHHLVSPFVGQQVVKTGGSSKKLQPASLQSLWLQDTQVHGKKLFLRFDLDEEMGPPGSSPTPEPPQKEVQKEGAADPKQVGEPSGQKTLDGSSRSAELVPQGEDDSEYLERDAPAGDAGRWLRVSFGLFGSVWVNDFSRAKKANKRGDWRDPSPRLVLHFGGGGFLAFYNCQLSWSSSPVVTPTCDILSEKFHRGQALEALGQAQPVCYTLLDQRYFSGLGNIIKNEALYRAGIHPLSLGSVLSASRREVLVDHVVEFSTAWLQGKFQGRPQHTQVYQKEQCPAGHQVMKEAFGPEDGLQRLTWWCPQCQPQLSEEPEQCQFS
Description: Inhibition of NEIL2 by quantifying inhibition of NEIL2-mediated cleavage and dissociation of quenched duplex DNA oligonucleotides, measured as fluorescence at 594 nm.

[2] = molecular target: T2, Endonuclease III-like protein 1 (Homo sapiens) (UniProt P78549); details: Compound Concentration 10.0 uM, Hit No;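 further: enzyme assay tracking NTHL1 cutting and release of a quenched double-stranded DNA oligo substrate, read as fluorescence at 594 nm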
T2 sequence (whole entry): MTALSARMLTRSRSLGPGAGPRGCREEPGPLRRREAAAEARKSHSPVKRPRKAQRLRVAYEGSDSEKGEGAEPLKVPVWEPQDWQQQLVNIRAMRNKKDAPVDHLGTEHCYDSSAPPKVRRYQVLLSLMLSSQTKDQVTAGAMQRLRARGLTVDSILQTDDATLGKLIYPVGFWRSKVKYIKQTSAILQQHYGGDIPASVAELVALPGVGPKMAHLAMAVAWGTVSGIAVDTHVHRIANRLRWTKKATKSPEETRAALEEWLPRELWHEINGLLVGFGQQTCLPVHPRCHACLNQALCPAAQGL
Description: Inhibition of NTHL1 by quantifying inhibition of NTHL1-mediated cleavage and dissociation of quenched duplex DNA oligonucleotides, measured as fluorescence at 594 nm.

[3] = molecular target: DNA-3-methyladenine glycosylase (Homo sapiens) (UniProt P29372); details: Compound Concentration 10.0 uM, Hit No;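 further: enzyme assay where MPG cuts a quenched duplex DNA oligonucleotide probe, paired with APE1 for strand incision and turnover, read as fluorescence at 594 nm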
DNA-3-methyladenine glycosylase (Homo sapiens), sequence (P29372 whole entry): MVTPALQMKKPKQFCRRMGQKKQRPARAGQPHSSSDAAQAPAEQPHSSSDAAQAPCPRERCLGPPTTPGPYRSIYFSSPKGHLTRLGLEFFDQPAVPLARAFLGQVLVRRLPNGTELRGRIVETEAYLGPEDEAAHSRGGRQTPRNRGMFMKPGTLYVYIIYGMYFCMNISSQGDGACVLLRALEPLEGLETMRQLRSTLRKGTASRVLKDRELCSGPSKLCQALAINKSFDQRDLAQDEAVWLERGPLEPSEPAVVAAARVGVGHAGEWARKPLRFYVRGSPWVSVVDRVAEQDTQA
Description: Inhibition of MPG by quantifying inhibition of MPG-mediated cleavage and dissociation of quenched duplex DNA oligonucleotides, measured as fluorescence at 594 nm. To generate a functional strand incision and increase turn-over this assay is coupled to APE1.

[4] = molecular target: G/T mismatch-specific thymine DNA glycosylase (Homo sapiens) (UniProt Q13569); details: Compound Concentration 10.0 uM, Hit No;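 further: human TDG cleavage of quenched duplex DNA oligonucleotides coupled to APE1, strand release read as fluorescence at 594 nm, inhibition of TDG activity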
G/T mismatch-specific thymine DNA glycosylase (Homo sapiens), sequence (Q13569 whole entry): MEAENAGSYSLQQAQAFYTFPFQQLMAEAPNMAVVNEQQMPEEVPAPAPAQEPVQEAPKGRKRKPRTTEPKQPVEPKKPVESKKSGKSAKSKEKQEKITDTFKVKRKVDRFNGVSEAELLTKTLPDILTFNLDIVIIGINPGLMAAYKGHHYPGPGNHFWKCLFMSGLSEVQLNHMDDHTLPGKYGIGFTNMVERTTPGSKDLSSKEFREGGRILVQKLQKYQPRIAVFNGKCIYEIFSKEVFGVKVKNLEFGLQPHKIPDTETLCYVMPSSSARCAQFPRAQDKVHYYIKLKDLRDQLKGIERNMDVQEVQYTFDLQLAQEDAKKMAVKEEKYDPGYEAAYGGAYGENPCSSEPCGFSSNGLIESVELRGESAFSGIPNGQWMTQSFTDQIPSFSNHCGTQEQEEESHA
Description: Inhibition of TDG by quantifying inhibition of TDG-mediated cleavage and dissociation of quenched duplex DNA oligonucleotides, measured as fluorescence at 594 nm. To generate a functional strand incision and increase turn-over this assay is coupled to APE1.

[5] = molecular target: N-glycosylase/DNA lyase (Homo sapiens) (UniProt O15527); details: Compound Concentration 10.0 uM;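 further: OGG1 cleavage of a quenched duplex DNA oligonucleotide, coupled to APE1 for strand incision, read as fluorescence at 594 nm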
N-glycosylase/DNA lyase (Homo sapiens), sequence (O15527 whole entry): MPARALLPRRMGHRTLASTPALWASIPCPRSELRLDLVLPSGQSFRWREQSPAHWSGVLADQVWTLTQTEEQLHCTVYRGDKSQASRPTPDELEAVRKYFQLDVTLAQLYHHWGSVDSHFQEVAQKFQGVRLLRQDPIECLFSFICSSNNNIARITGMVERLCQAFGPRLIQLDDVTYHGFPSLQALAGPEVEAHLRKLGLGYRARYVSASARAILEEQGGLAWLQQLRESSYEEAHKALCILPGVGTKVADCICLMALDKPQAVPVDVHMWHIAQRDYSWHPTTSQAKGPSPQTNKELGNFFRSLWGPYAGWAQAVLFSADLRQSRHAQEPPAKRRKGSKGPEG
Description: Inhibition of OGG1 by quantifying inhibition of OGG1-mediated cleavage and dissociation of quenched duplex DNA oligonucleotides, measured as fluorescence at 594 nm. To generate a functional strand incision and increase turn-over this assay is coupled to APE1.

[6] = molecular target: Endonuclease 8-like 1 (Homo sapiens) (UniProt Q96FI4); details: Compound Concentration 10.0 uM, Hit No;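 further: fluorescence at 594 nm from quenched duplex DNA oligonucleotides released by NEIL1 cleavage and strand separation, reported as reduction of this enzyme activity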
Endonuclease 8-like 1 (Homo sapiens), sequence (Q96FI4 whole entry): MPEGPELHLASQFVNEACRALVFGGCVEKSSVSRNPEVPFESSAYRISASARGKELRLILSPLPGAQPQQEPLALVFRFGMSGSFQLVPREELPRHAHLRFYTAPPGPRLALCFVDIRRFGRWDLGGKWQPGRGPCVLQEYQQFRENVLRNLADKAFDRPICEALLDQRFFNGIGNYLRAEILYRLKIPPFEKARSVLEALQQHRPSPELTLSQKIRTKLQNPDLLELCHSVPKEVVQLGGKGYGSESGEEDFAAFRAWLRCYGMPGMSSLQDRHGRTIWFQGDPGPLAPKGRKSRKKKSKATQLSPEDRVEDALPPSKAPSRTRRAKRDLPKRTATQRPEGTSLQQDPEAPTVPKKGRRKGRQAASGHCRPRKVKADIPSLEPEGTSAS
Description: Inhibition of NEIL1 by quantifying inhibition of NEIL1-mediated cleavage and dissociation of quenched duplex DNA oligonucleotides, measured as fluorescence at 594 nm.

[7] = molecular target: Uracil-DNA glycosylase (Homo sapiens) (UniProt P13051); details: Compound Concentration 10.0 uM;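 further: UNG excision on a quenched double-stranded DNA oligo probe, with APE1 added for strand incision and turnover, read as fluorescence at 594 nm as strands separate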
Uracil-DNA glycosylase (Homo sapiens), sequence (P13051 whole entry): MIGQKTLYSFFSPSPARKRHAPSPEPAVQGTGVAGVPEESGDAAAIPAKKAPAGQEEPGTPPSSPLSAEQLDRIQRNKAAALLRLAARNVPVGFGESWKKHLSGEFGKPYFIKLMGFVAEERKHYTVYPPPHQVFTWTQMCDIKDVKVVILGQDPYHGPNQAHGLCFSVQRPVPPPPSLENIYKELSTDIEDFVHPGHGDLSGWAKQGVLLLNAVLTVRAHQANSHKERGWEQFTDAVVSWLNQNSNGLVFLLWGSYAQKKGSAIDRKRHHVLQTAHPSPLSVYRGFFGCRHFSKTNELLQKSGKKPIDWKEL
Description: Inhibition of UNG by quantifying inhibition of UNG-mediated cleavage and dissociation of quenched duplex DNA oligonucleotides, measured as fluorescence at 594 nm. To generate a functional strand incision and increase turn-over this assay is coupled to APE1.

[8] = molecular target: T3, Single-strand selective monofunctional uracil DNA glycosylase (Homo sapiens) (UniProt Q53HV7); details: Compound Concentration 10.0 uM;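 further: enzymatic SMUG1 assay coupled with APE1, reading fluorescence at 594 nm released when a quenched double-stranded DNA oligonucleotide substrate is cleaved and separated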
T3 sequence (whole entry): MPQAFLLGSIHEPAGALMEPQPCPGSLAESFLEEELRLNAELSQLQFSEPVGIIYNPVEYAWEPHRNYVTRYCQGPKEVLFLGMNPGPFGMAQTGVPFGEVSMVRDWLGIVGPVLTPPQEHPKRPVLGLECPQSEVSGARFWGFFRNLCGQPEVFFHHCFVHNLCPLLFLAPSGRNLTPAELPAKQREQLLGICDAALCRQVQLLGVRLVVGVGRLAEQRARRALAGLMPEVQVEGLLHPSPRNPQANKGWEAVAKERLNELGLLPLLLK
Description: Inhibition of SMUG1 by quantifying inhibition of SMUG1-mediated cleavage and dissociation of quenched duplex DNA oligonucleotides, measured as fluorescence at 594 nm. To generate a functional strand incision and increase turn-over this assay is coupled to APE1.

| SMILES | inhibition ([1]; Hit No) [%] | inhibition [2] [%] | inhibition [3] [%] | inhibition [4] [%] | inhibition ([5]; Hit No) [%] | inhibition [6] [%] | inhibition ([7]; Hit No) [%] | inhibition ([8]; Hit No) [%] | inhibition ([1]; Hit Yes) [%] | inhibition ([7]; Hit Yes) [%] | inhibition ([8]; Hit Yes) [%] | inhibition ([5]; Hit Yes) [%] |
| --- | --- | --- | --- | --- | --- | --- | --- | --- | --- | --- | --- | --- |
| Cc1nn(C)c(C)c1-c1cccc2c1CC[C@H](N(C)C)C2 | -0.234 | 6.32 | -9.58 | -4.55 | -7.75 | 1.87 |  |  |  |  |  |  |
| CNc1nc(NCc2ccc(NS(C)(=O)=O)cc2Cl)cc(-c2ccccn2)n1 | 7.25 | -9.07 | -5.26 | 18.1 | 15 | 3.5 | -9.82 | 11.2 |  |  |  |  |
| COc1ccc(CCN(C)CCCC(C#N)(c2cc(OC)c(OC)c(OC)c2)C(C)C)cc1OC (stereo not drawn) | 2.71 | 3.04 | -3.7 | -7.93 | -7.76 | 5.05 | -3.3 | -0.579 |  |  |  |  |
| CS(=O)(=O)c1ccc(C(=O)Nc2ccc(Cl)c(-c3ccccn3)c2)c(Cl)c1 | 5.76 | -9.8 | 3.65 | 6.01 |  | 3.5 |  |  |  |  |  |  |
| CN1[C@@H](CC(=O)c2ccccc2)CCC[C@H]1C[C@H](O)c1ccccc1 |  | -8.51 | -4.83 | -5.94 | -6.7 | 1.64 | -4.79 | 1.46 |  |  |  |  |
| N#Cc1c[nH]c2c(C(=O)N3CCN(CCc4ccc(F)cc4)CC3)cccc12 | -4.73 | -5.41 | -7.3 |  | -8.41 |  | -9.6 | -8.12 |  |  |  |  |
| COC(=O)[C@H](CCCN=C(N)N)NC(=O)CCCc1c(-c2ccccc2)[nH]c2c(F)cc(F)cc12 |  | -5.41 | 5.31 | 16.3 | -3.54 | 5.58 | -5.65 |  | 38.2 |  |  |  |
| OCc1cc(C(O)CNCCCCCCOCCCCc2ccccc2)ccc1O (stereo not drawn) | 4.01 | 11.4 | 0.951 | 6.25 | -5.95 | 8.39 | -9.38 |  |  |  |  |  |
| N#Cc1c(Oc2cccc(OS(=O)(=O)CCCC(F)(F)F)c2)cccc1C(F)(F)F | -7.74 | -1.91 | 8.15 | -4.05 | -7.69 |  | -1.27 |  |  |  |  |  |
| CC(=O)N[C@H](Cc1ccc2ccccc2c1)C(=O)N[C@H](Cc1ccc(Cl)cc1)C(=O)N[C@H](Cc1cccnc1)C(=O)N[C@@H](CO)C(=O)N[C@@H](Cc1ccc(NC(=O)[C@@H]2CC(=O)NC(=O)N2)cc1)C(=O)N[C@H](Cc1ccc(NC(N)=O)cc1)C(=O)N[C@@H](CC(C)C)C(=O)N[C@@H](CCCCNC(C)C)C(=O)N1CCC[C@H]1C(=O)N[C@H](C)C(N)=O (Ac-[d2Nal][dPhe(4-Cl)][d3Pal]S[Phe(4-NH2)](Dihydroorotyl(S))[dPhe(4-NHCONH2)]L[Lys(iPr)]P[dA]-NH2) | 25.7 | 7.79 | 22.6 | 56.9 |  |  |  |  |  | 86.3 | 53.4 | 98.4 |
| Cc1nnsc1C(=O)Nc1ccc(-n2nc(C(F)(F)F)cc2C(F)(F)F)cc1 | 0.414 | 14.6 | -1.63 |  | 15.7 | 0.306 | -0.15 | 15.8 |  |  |  |  |
| CSc1nc(NC2CCCC2)c([N+](=O)[O-])c(NC2CCCC2)n1 | 7.5 | 21 | -2.56 | 7.68 | -2.94 | 2.61 |  |  |  |  |  |  |
| O=C(NCC1(N2CCN(c3ccccc3)CC2)CCOCC1)c1cccnc1Sc1ccccc1 | -7.99 | 23.7 | 1.32 | -0.15 |  | -4.14 | 1.03 | 2.13 |  |  |  |  |
| CC[C@H]1CN2CCc3cc(OC)c(OC)cc3[C@@H]2C[C@@H]1C[C@H]1NCCc2cc(OC)c(OC)cc21 | 4.51 | 3.39 | -9.31 | -0.514 |  | -0.5 |  | -7.35 |  |  |  |  |
